{"source": "paper PMC10121968", "about": "“Fosgonimeton, a Novel Positive Modulator of the HGF/MET System, Promotes Neurotrophic and Procognitive Effects in Models of Dementia” (Neurotherapeutics, 2022)", "key": {"[1]": {"test_system": "primary rat hippocampal neurons", "assay": "Neurite outgrowth assay (beta-III tubulin staining)", "format": "cell-based", "conditions": "HGF alone 5 ng/mL, 4 days, vs vehicle", "description": "On day 0, rat hippocampal neurons from newborn pups were isolated and cultured in brain neuronal culture medium (neurobasal medium supplemented with 5% FBS, 2% B-27 supplement, and 0.003% gentamycin) at 37 °C under 5% CO2. At 1 day in vitro (DIV1), cells were transferred to a poly-D-lysine–coated 24-well plate at approximately 10,000 cells/well. Cells were then grown in […] of serum-free medium and treated with the following: 0.1% dimethyl sulfoxide (DMSO; vehicle), 10 nM dihydrotestosterone (positive control), 10 nM fosgo-AM, 1 nM fosgo-AM, 5 ng/ml HGF, or 5 ng/ml HGF + 1 nM fosgo-AM. All treatments contained a final concentration of 0.1% DMSO. For the neurite outgrowth assay, treatment media were refreshed on DIV3, and cells were processed for analysis on DIV4. For the synaptogenesis assay, treatment media were refreshed on DIV3 and DIV6, and cells were processed for analysis on DIV8. Processing for both the neurite outgrowth and the synaptogenesis assays was performed as follows: media were removed, and cells were fixed with 100% methanol for 20 min at RT before methanol was aspirated and each well was washed twice with Dulbecco’s phosphate-buffered saline (DPBS). Cells were permeabilized using 0.02% […] (ThermoFisher, Waltham, Massachusetts) in DPBS for 2 min at RT without shaking, and plates were blocked with 5% bovine serum albumin (BSA) in DPBS for 1 h at RT. Plates were then incubated overnight at 4 °C with gentle shaking with use of beta-III tubulin antibody (ab201740; Abcam, Boston, Massachusetts) to assess neurite outgrowth or with use of 1:500 rabbit anti–synaptobrevin-II antibody (Synaptic Systems, cat# 104 202, Göttingen, Germany) to assess synaptogenesis. After overnight incubation, plates were washed 3 times with DPBS and incubated for 1 h at RT with use of anti–rabbit immunoglobulin G–secondary antibody conjugated to Alexa Fluor 488 (Life Technologies, Carlsbad, California, 1:500). After 5 DPBS washes, coverslips were mounted on slides using fluorescent mounting medium (Golden Bridge International Labs, Bothell, Washington, cat# E19-s). Imaging was performed using the BX43 Olympus microscope driven by the standard “CellSens” software by Olympus. […] Ten images of single cells from a total of 2 assays were analyzed using NeuroJ plug-in for ImageJ to assess neurite outgrowth, as neurite length and the number of branches per neuron were counted for each cell. For the synaptogenesis assay, synaptic count (number of synapses) and synaptic strength (relative abundance of presynaptic vesicles per synapse as measured by synaptobrevin-II fluorescence intensity) were quantified for each cell. Data were assessed for normality (Shapiro–Wilk) and homoscedasticity (Brown-Forsythe). […]"}, "MDCK cells": {"test_system": "MDCK cells", "assay": "MDCK cell scatter behavior assay", "format": "cell-based, canine", "conditions": "HGF 40 ng/mL, 24 h", "description": "Madin-Darby canine kidney (MDCK, ATCC CCL-34) cells were grown at 37 °C, 5% CO2 in Eagle’s Minimum Essential Medium (EMEM) + 10% FBS in T-75 flasks until 80% confluent. Cells were then plated at 1400 cells/well in black-walled, clear-bottom 96-well plates and grown at 37 °C under 5% CO2 for 24 h. Growth media were replaced by serum-free media for 2 h before treatment. Treatments containing HGF and fosgo-AM were made in serum-free media and applied in quintuplicates for 24 h at 37 °C under 5% CO2. Cells were then fixed in chilled 100% EtOH at 4 °C for 20 min and then stained with wheat germ agglutinin conjugated to CF488 (WGA488, Biotium, 29,022–1, Fremont, California) at […] in phosphate-buffered saline (PBS) for 30 min at RT to visualize whole-cell surfaces. Cultures were then imaged with an iCys instrument (iCyte, Thor Labs, Newton, New Jersey) and analyzed with the ImageJ (National Institutes of Health) particle count feature. Scattering behavior was quantified by normalizing particle counts against total stained area. […] Data were assessed for normality (Shapiro–Wilk) and homoscedasticity (Brown-Forsythe). The statistical difference from HGF alone was determined by one-way ANOVA with Dunnett’s multiple comparison post-test with an alpha value of 0.05 (Prism, GraphPad)."}, "ERK (Thr202/Tyr204)": {"test_system": "ERK (Thr202/Tyr204)", "assay": "Phospho-ERK HTRF assay in HEK293 cells", "format": "cell-based, human", "conditions": "HEK293, HGF 10 ng/mL, vs no HGF treatment", "excerpt": "To determine phosphoactivation status of the intracellular signaling molecules ERK (Thr202/Tyr204) or AKT (Ser473), we used homogenous time-resolved fluorescence (HTRF) kits to assess phosphorylation status based on the energy transfer between donor and acceptor phospho-ERK (pERK) or phospho-AKT (pAKT) antibodies. HTRF kit processing for pERK (Phospho-ERK [Thr202/Tyr204] cellular Advanced kit, #64AERPEG, Cisbio, Codolet, France) and pAKT (Phospho-AKT [Ser473] cellular kit, #64AKSPEG, Cisbio, Codolet, France) were carried out per manufacturer instructions. In brief, HEK293 cells were grown at 37 °C, 5% CO2 in DMEM + 10% FBS until approximately 80% confluent. Cells were seeded in polystyrene-treated 96-well cell culture plates at approximately 50,000 cells/well and cultured overnight in 50 µL serum-free growth media. […] Fluorescence emission at 2 different wavelengths (665 nm and 620 nm) were measured on an Envision plate reader (PerkinElmer, Waltham, Massachusetts), and the HTRF ratio of the acceptor and donor emission signals for each well was calculated as follows: HTRF ratio = (665 nm/620 nm) × 10,000. […] Data were assessed for normality (Shapiro–Wilk) and homoscedasticity (Brown-Forsythe). Statistical significance was determined by one-way analysis of variance (ANOVA) with Tukey’s multiple comparison post-test. […]"}, "[2]": {"test_system": "LPS-induced neuroinflammatory mouse model", "assay": "LPS-induced cognitive impairment, T-maze spontaneous alternation", "format": "in vivo", "conditions": "14 days", "description": "All animal manipulations were conducted in accordance with the European Directive 2010/63/UE published in the French decree 2013–118 of February 1, 2013, and approved by an independent government-accredited ethics committee (CEEA 35, NEUROFIT, France). Animals for the study consisted of 90 four- to five-week-old CD-1 mice (Janvier, Le Genest St Isle, France). Mice were group-housed and maintained in a room with controlled temperature (21–22 °C) and reversed 12/12 light/dark cycle. The animals had access to food and water ad libitum.\nMice were sorted into the following experimental groups: saline + vehicle (control), LPS + vehicle (LPS), LPS + 0.1 mg/kg memantine, and LPS + fosgonimeton at 0.125, 0.25, 0.5, 1, or 1.25 mg/kg (LPS + fosgo). On day 0 of the study, all groups received either a single intraperitoneal injection of saline or LPS (0.25 mg/kg). During days 1–14, animals received memantine or fosgonimeton treatment once daily. On day 14, 60 min after the last dosing with test compounds or vehicle, mice were assessed for performance on the T-maze spontaneous alternation task.\nThe T-maze apparatus was made of gray Plexiglas with a main stem (55 cm × 10 cm × 20 cm) and 2 arms (30 cm × 10 cm × 20 cm) positioned at a 90° angle relative to the main stem. A start box (15 cm × 10 cm) was separated from the main stem by a guillotine door. Horizontal doors were also provided to close specific arms during the “forced-choice” alternation task.\nThe experimental protocol consisted of a single session, which started with 1 forced-choice trial, followed by 14 “free-choice” trials. In the forced-choice trial, the animal was confined for 5 s in the start arm and was then released while either the left or the right goal arm was blocked by a horizontal door. Animals were allowed to explore the maze, eventually entering the open goal arm and afterward returning to the start position. […] The animal was considered to have entered an arm if it placed all 4 paws in the arm. The session was terminated and the animal was removed from the maze after 14 free-choice trials were performed or 10 min elapsed, whichever occurred first. The apparatus was cleaned between each animal run using 70% ethanol. During the trials, animal handling and the visibility of the operator were controlled to minimize interference during testing.\nThe percentage of alternations over the 14 free-choice trials was determined for each mouse and was used as an index of working memory performance. This percentage was defined as entry into a different goal arm of the T maze over successive trials (e.g., left–right–left–right) and was calculated using the formula: %Alternations=Number of Alternations/14×100\nAdditionally, percentage of recovery was calculated by normalizing the control group to 100% and the LPS group to 0% and calculating the respective relative response for each individual animal, as follows: %Recovery=(Individual%alternation-meanLPS%alternation)/(Meancontrol%alternation-meanLPS%alternation)\nData were assessed for normality (Shapiro–Wilk) and homoscedasticity (Brown-Forsythe). One-way ANOVA was performed on the data for spontaneous alternations. Dunnett multiple comparison test was used for post hoc pairwise comparisons with the LPS group. The Kruskal–Wallis test was used for percentage of recovery with Dunn’s multiple comparison post hoc test. A value of p < 0.05 was considered to represent a statistically significant difference."}, "[3]": {"assay": "Fosgonimeton solubility (filtration/HPLC in PBS)", "format": "physicochemical", "conditions": "osmolarity-corrected PBS", "description": "Fosgonimeton solubility studies were contracted to GVK Biosciences, Hyderabad, India. Stocks of fosgonimeton were prepared in duplicate at several concentrations in osmolarity-corrected PBS and were vortexed to dissolve into solution. The solutions were filtered through a 0.45-µm filter followed by a 0.22-µm filter to remove insoluble particulates. Pre- and postfiltration aliquots were collected, and their concentration was determined via high-performance liquid chromatography."}, "[4]": {"assay": "Fosgonimeton CNS distribution in rats", "format": "in vivo, rat", "conditions": "12 mg/kg fosgonimeton SC, all brain regions", "description": "Three male Sprague Dawley rats per time point were given 12 mg/kg fosgonimeton via SC injection. At 0.16, 0.5, and 1 h after dosing, animals were humanely killed and perfused with chilled saline. Brains were collected and dissected into the following brain regions: whole brain, striatum, olfactory bulb, hippocampus, cerebellum, cerebral cortex, and brainstem. Brain regions were homogenized and the exposures of fosgonimeton and fosgo-AM were determined by LC/MS/MS."}, "[5]": {"assay": "Plasma PK in rats after SC injection", "format": "in vivo, rat", "conditions": "SC", "description": "Four male rats were treated with 10 mg/kg fosgo-AM in DMSO via SC injection. Blood was serially collected at 0.08, 0.25, 0.5, 1, 2, and 4 h after dosing. Plasma was obtained by centrifugation with 2% disodium ethylenediaminetetraacetic acid (EDTA) as an anticoagulant. Plasma samples were precipitated with acetonitrile containing internal standard, and the concentration of fosgo-AM was determined by LC/MS/MS.\nThis study was conducted as described in the “Fosgo-AM PK in Rats” section with the following changes: animals were given 12 mg/kg fosgonimeton in saline with 0.1% glycine via SC injection, and a dose-linear correction was applied to normalize the dose to 10 mg/kg for comparison with the fosgo-AM study. Sample concentrations of both fosgonimeton and fosgo-AM were determined."}, "Fosgonimeton PK in mice": {"assay": "Fosgonimeton PK in mice", "format": "in vivo, mouse", "conditions": "0.75 mg/kg SC, first tested time point", "description": "Three male BALBc mice were treated with 0.75 mg/kg fosgonimeton in saline with 0.1% glycine via SC injection. Blood was serially collected at 0.25, 0.5, 1, 2, and 4 h after dosing. Plasma was obtained by centrifugation with 2% disodium EDTA as an anticoagulant. Plasma samples were precipitated with acetonitrile containing internal standard, and the concentration of fosgonimeton and fosgo-AM was determined by LC/MS/MS."}}, "note": "Non-standard residues stand in square brackets, D forms with d. Residues, ends and D or L forms follow the SMILES beside them. *: point of attachment. pY = N[C@@H](Cc1ccc(OP(=O)(O)O)cc1)C(=O)O; Hexanoyl = CCCCCC(=O)*; Ahx = NCCCCCC(=O)O", "data": [{"compound": "HGF: Recombinant HGF protein (R&D Systems), ligand of the MET receptor", "values": [{"measurement": "neurite length per cell", "setting": "[1]", "result": "no significant differences compared with vehicle"}, {"measurement": "cell scattering behavior", "setting": "MDCK cells", "result": "significantly increased cell scattering behavior"}, {"measurement": "pERK levels", "setting": "ERK (Thr202/Tyr204)", "result": "significantly increased pERK versus no HGF treatment"}]}, {"compound": "CC12CC3CC(C)(C1)CC(N)(C3)C2", "note": "[memantine, reference compound]", "values": [{"measurement": "percentage of spontaneous alternations vs LPS group", "setting": "[2]; 0.1 mg/kg I.P. once daily", "result": "significantly prevented LPS-induced cognitive deficits"}, {"measurement": "percentage of recovery (spontaneous alternations)", "setting": "[2]; positive control, 0.1 mg/kg I.P. once daily", "result": 76.40, "unit": "%"}]}, {"compound": "CCCCCC(=O)N[C@@H](Cc1ccc(OP(=O)(O)O)cc1)C(=O)N[C@H](C(=O)NCCCCCC(N)=O)[C@@H](C)CC", "note": "[fosgonimeton] (Hexanoyl-[pY]-Ile-[Ahx]-NH2)", "values": [{"measurement": "solubility in aqueous solutions", "setting": "[3]", "result": "greater than 70 mg/mL"}, {"measurement": "detection in brain regions", "setting": "[4]", "result": "undetectable"}, {"measurement": "fold higher fosgo-AM Cmax vs equivalent direct dose of fosgo-AM", "setting": "[5]", "result": "~4", "unit": "fold"}, {"measurement": "systemic exposure of fosgo-AM vs equivalent direct dose of fosgo-AM", "setting": "[5]", "result": "higher systemic exposure"}, {"measurement": "time of appearance of active compound fosgo-AM after fosgonimeton", "setting": "[5]; first tested time point", "result": "≤ 5", "unit": "min"}, {"measurement": "time of appearance of active compound fosgo-AM after fosgonimeton", "setting": "Fosgonimeton PK in mice", "result": "≤ 15", "unit": "min"}, {"measurement": "percentage of recovery (spontaneous alternations)", "setting": "[2]; 0.25 mg/kg SC once daily", "result": 61.76, "unit": "%"}, {"measurement": "percentage of recovery (spontaneous alternations)", "setting": "[2]; 0.5 mg/kg SC once daily", "result": 79.40, "unit": "%"}, {"measurement": "percentage of recovery (spontaneous alternations)", "setting": "[2]; 1 mg/kg SC once daily", "result": 64.70, "unit": "%"}, {"measurement": "percentage of recovery (spontaneous alternations)", "setting": "[2]; 1.25 mg/kg SC once daily", "result": 64.70, "unit": "%"}, {"measurement": "percentage of spontaneous alternations vs LPS group", "setting": "[2]; 0.25, 0.5, 1 and 1.25 mg/kg SC once daily", "result": "significantly ameliorated these deficits"}]}]}
